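Where inhibition never reached the appropriate level, the endpoint shown equals the highest concentration tested. Otherwise, values were interpolated linearly from a five-concentration, 48-hour dose response in 96-well plates. TGI: total growth inhibition.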
Experiments:
Experiment in all cases: NCI-60 cell line screen, 48 h
786-0 renal = test system: 786-0 renal
A549 NSCLC = test system: A549 NSCLC
ACHN renal = test system: ACHN renal
BT-549 breast = test system: BT-549 breast
CAKI-1 renal = test system: CAKI-1 renal
CCRF-CEM leukemia = test system: CCRF-CEM leukemia
COLO 205 colon = test system: COLO 205 colon
DU-145 prostate = test system: DU-145 prostate
EKVX NSCLC = test system: EKVX NSCLC
HCC-2998 colon = test system: HCC-2998 colon
HCT-116 colon = test system: HCT-116 colon
HCT-15 colon = test system: HCT-15 colon
HOP-62 NSCLC = test system: HOP-62 NSCLC
HOP-92 NSCLC = test system: HOP-92 NSCLC
HS 578T breast = test system: HS 578T breast
HT29 colon = test system: HT29 colon
IGROV1 ovarian = test system: IGROV1 ovarian
K-562 leukemia = test system: K-562 leukemia
KM12 colon = test system: KM12 colon
LOX IMVI melanoma = test system: LOX IMVI melanoma
M14 melanoma = test system: M14 melanoma
MALME-3M melanoma = test system: MALME-3M melanoma
MDA-MB-231 breast = test system: MDA-MB-231 breast
MDA-MB-435 = test system: MDA-MB-435
MDA-N = test system: MDA-N
MOLT-4 leukemia = test system: MOLT-4 leukemia
NCI-H226 lung = test system: NCI-H226 lung
NCI-H23 lung = test system: NCI-H23 lung
NCI-H460 lung = test system: NCI-H460 lung
NCI-H522 lung = test system: NCI-H522 lung
OVCAR-3 ovarian = test system: OVCAR-3 ovarian
OVCAR-4 ovarian = test system: OVCAR-4 ovarian
OVCAR-5 ovarian = test system: OVCAR-5 ovarian
PC-3 prostate = test system: PC-3 prostate
RPMI-8226 leukemia = test system: RPMI-8226 leukemia
SF-268 CNS = test system: SF-268 CNS
SF-295 CNS = test system: SF-295 CNS
SK-MEL-2 melanoma = test system: SK-MEL-2 melanoma
SK-MEL-28 melanoma = test system: SK-MEL-28 melanoma
SK-MEL-5 melanoma = test system: SK-MEL-5 melanoma
SK-OV-3 ovarian = test system: SK-OV-3 ovarian
SN12C renal = test system: SN12C renal
SNB-19 CNS = test system: SNB-19 CNS
SNB-75 CNS = test system: SNB-75 CNS
SR leukemia = test system: SR leukemia
SW-620 colon = test system: SW-620 colon
T-47D breast = test system: T-47D breast
TK-10 renal = test system: TK-10 renal
U251 CNS = test system: U251 CNS
UACC-257 melanoma = test system: UACC-257 melanoma
UACC-62 melanoma = test system: UACC-62 melanoma
UO-31 renal = test system: UO-31 renal
MCF7 breast = test system: MCF7 breast
NCI/ADR-RES ovarian = test system: NCI/ADR-RES ovarian
OVCAR-8 ovarian = test system: OVCAR-8 ovarian
SF-539 CNS = test system: SF-539 CNS

## O=C(N/N=C(\c1ccccc1)c1ccccn1)NC1CCCCC1
786-0 renal
  TGI: > 100 µM
A549 NSCLC
  TGI: > 100 µM
ACHN renal
  TGI: > 100 µM
BT-549 breast
  TGI: > 100 µM
CAKI-1 renal
  TGI: > 100 µM
CCRF-CEM leukemia
  TGI: > 100 µM
COLO 205 colon
  TGI: > 100 µM
DU-145 prostate
  TGI: > 100 µM
EKVX NSCLC
  TGI: > 100 µM
HCC-2998 colon
  TGI: > 100 µM
HCT-116 colon
  TGI: > 100 µM
HCT-15 colon
  TGI: > 100 µM
HOP-62 NSCLC
  TGI: > 100 µM
HOP-92 NSCLC
  TGI: > 100 µM
HS 578T breast
  TGI: > 100 µM
HT29 colon
  TGI: > 100 µM
IGROV1 ovarian
  TGI: > 100 µM
K-562 leukemia
  TGI: > 100 µM
KM12 colon
  TGI: > 100 µM
LOX IMVI melanoma
  TGI: 51.7 µM
M14 melanoma
  TGI: > 100 µM
MALME-3M melanoma
  TGI: > 100 µM
MDA-MB-231 breast
  TGI: > 100 µM
MDA-MB-435
  TGI: > 100 µM
MDA-N
  TGI: > 100 µM
MOLT-4 leukemia
  TGI: > 100 µM
NCI-H226 lung
  TGI: 83.2 µM
NCI-H23 lung
  TGI: > 100 µM
NCI-H460 lung
  TGI: > 100 µM
NCI-H522 lung
  TGI: > 100 µM
OVCAR-3 ovarian
  TGI: > 100 µM
OVCAR-4 ovarian
  TGI: > 100 µM
OVCAR-5 ovarian
  TGI: > 100 µM
PC-3 prostate
  TGI: > 100 µM
RPMI-8226 leukemia
  TGI: > 100 µM
SF-268 CNS
  TGI: > 100 µM
SF-295 CNS
  TGI: > 100 µM
SK-MEL-2 melanoma
  TGI: > 100 µM
SK-MEL-28 melanoma
  TGI: > 100 µM
SK-MEL-5 melanoma
  TGI: > 100 µM
SK-OV-3 ovarian
  TGI: > 100 µM
SN12C renal
  TGI: > 100 µM
SNB-19 CNS
  TGI: > 100 µM
SNB-75 CNS
  TGI: > 100 µM
SR leukemia
  TGI: > 100 µM
SW-620 colon
  TGI: > 100 µM
T-47D breast
  TGI: > 100 µM
TK-10 renal
  TGI: > 100 µM
U251 CNS
  TGI: > 100 µM
UACC-257 melanoma
  TGI: > 100 µM
UACC-62 melanoma
  TGI: > 100 µM
UO-31 renal
  TGI: > 100 µM

## CN(CCSCCN(C)C(=O)OC(C)(C)C)C(=O)OC(C)(C)C
786-0 renal
  TGI: > 100 µM
A549 NSCLC
  TGI: > 100 µM
ACHN renal
  TGI: > 100 µM
BT-549 breast
  TGI: > 100 µM
CAKI-1 renal
  TGI: > 100 µM
CCRF-CEM leukemia
  TGI: > 100 µM
COLO 205 colon
  TGI: > 100 µM
DU-145 prostate
  TGI: > 100 µM
EKVX NSCLC
  TGI: > 100 µM
HCC-2998 colon
  TGI: > 100 µM
HCT-116 colon
  TGI: > 100 µM
HCT-15 colon
  TGI: > 100 µM
HOP-62 NSCLC
  TGI: > 100 µM
HOP-92 NSCLC
  TGI: > 100 µM
HS 578T breast
  TGI: > 100 µM
HT29 colon
  TGI: > 100 µM
IGROV1 ovarian
  TGI: > 100 µM
K-562 leukemia
  TGI: > 100 µM
KM12 colon
  TGI: > 100 µM
LOX IMVI melanoma
  TGI: > 100 µM
M14 melanoma
  TGI: > 100 µM
MALME-3M melanoma
  TGI: > 100 µM
MCF7 breast
  TGI: > 100 µM
MDA-MB-231 breast
  TGI: > 100 µM
MDA-MB-435
  TGI: > 100 µM
MDA-N
  TGI: > 100 µM
MOLT-4 leukemia
  TGI: > 100 µM
NCI-H23 lung
  TGI: > 100 µM
NCI-H460 lung
  TGI: > 100 µM
NCI-H522 lung
  TGI: > 100 µM
NCI/ADR-RES ovarian
  TGI: > 100 µM
OVCAR-3 ovarian
  TGI: > 100 µM
OVCAR-4 ovarian
  TGI: > 100 µM
OVCAR-5 ovarian
  TGI: > 100 µM
OVCAR-8 ovarian
  TGI: > 100 µM
PC-3 prostate
  TGI: > 100 µM
SF-268 CNS
  TGI: > 100 µM
SF-295 CNS
  TGI: > 100 µM
SF-539 CNS
  TGI: > 100 µM
SK-MEL-2 melanoma
  TGI: > 100 µM
SK-MEL-28 melanoma
  TGI: > 100 µM
SK-MEL-5 melanoma
  TGI: > 100 µM
SK-OV-3 ovarian
  TGI: > 100 µM
SN12C renal
  TGI: > 100 µM
SNB-19 CNS
  TGI: > 100 µM
SNB-75 CNS
  TGI: > 100 µM
SR leukemia
  TGI: > 100 µM
SW-620 colon
  TGI: > 100 µM
TK-10 renal
  TGI: > 100 µM
U251 CNS
  TGI: > 100 µM
UACC-257 melanoma
  TGI: > 100 µM
UACC-62 melanoma
  TGI: > 100 µM
UO-31 renal
  TGI: > 100 µM

From PubChem BioAssay (NCI)
